Values of other authors, collected in patent US8858979B1, “Service induced byproducts for localized drug delivery in orthopaedic implants” (Clemson University, priority 2011, dated 2014).

System: cell proliferation
Conditions: reported data, estimated

SMILES: NCCCC(O)(P(=O)([O-])O)P(=O)(O)O.[Na+] [alendronate, alendronate sodium]
- concentration that can inhibit cell proliferation: about 10^−4 M
